Results on 53 compounds are retold here after patent US20260373138A1, “COMPOUNDS WITH ANTIFUNGAL PROPERTIES” (priority 2023, published 2026).

The subject of the assay is A. fumigatus CEA10 reference strain. Put plainly: Fluconazole potentiator screen: MIC by CLSI microbroth dilution with and without fluconazole. The assay is classed as cell-based, Aspergillus fumigatus. The conditions noted are these: for MIC: Aspergillus fumigatus, read-out: MIC (ug/mL) (−) Fluc; for MIC / MIC (ug/mL) (+) Fluc: 18 h; for MIC (ug/mL) (+) Fluc: with 32 μg/ml fluconazole, normoxia, GMM, 37 °C; for potency / potentiation of fluconazole (in words): structure-activity statements, fluconazole potentiator screen. (In broth dilution the organism is exposed to a series of concentrations in liquid medium.)

Regarding `O=S(=O)(c1cccc(F)c1)N1CCC(Cc2ccc(CN3CC4(COC4)C3)cc2)CC1` [MBX-8244], the MIC is greater than 22 µg/mL and the “MIC (ug/mL) (+) Fluc” value was greater than 22 µg/mL.
For `O=S(=O)(c1ccc(F)cc1)N1CCC(Cc2ccc(Cc3ccncc3)cc2)CC1` [MBX-8428], the MIC turned out to be 10.6 µg/mL and the “MIC (ug/mL) (+) Fluc” value was found to be 6.37 µg/mL.
As to `CC(C1CCN(Cc2ccc(CN3CCOCC3)cc2)CC1)S(=O)(=O)c1ccc(F)cc1` (centres unmarked) [MBX-8359], the MIC is greater than 23 µg/mL and the “MIC (ug/mL) (+) Fluc” value is greater than 23 µg/mL.
With `O=C(c1cccs1)N1CCC2(CC1)CC(CCOc1ccncc1)CCO2` (centres unmarked) [MBX-8394], the MIC was determined as 19 µg/mL and the “MIC (ug/mL) (+) Fluc” value came out at 9.70 µg/mL.
Regarding `O=C(c1ccsc1)N1CCC(Cc2ccc(COc3cccnc3)cc2)CC1` [MBX-8065], the MIC is greater than 19 µg/mL, the “potency / potentiation of fluconazole (in words)” value (“potency / potentiation” for short) is on record as “complete loss of activity” and the “MIC (ug/mL) (+) Fluc” value was greater than 19 µg/mL.
The like results for `Cc1cc(OCc2ccc(CC3CCN(C(=O)c4ccsc4)CC3)cc2)ccn1` [MBX-8141] were, in that order, greater than 20 µg/mL, “complete loss of activity” and greater than 20 µg/mL.
As for `O=C(c1cccc(F)c1)N1CCC(Cc2ccc(COc3ccncc3)cc2)CC1` [MBX-7770], the MIC amounted to 8.09 µg/mL and the “MIC (ug/mL) (+) Fluc” value stood at 8.09 µg/mL.
As for `O=S(=O)(c1ccc(F)cc1)N1CCC(Cc2ccc(CN3CCN(CC(F)(F)F)CC3)cc2)CC1` [MBX-8438], the MIC was greater than 25 µg/mL and the “MIC (ug/mL) (+) Fluc” value is greater than 25 µg/mL.
For `COC(=O)c1ccc(C(=O)N2CCC(Cc3ccc(COc4ccncc4)cc3)CC2)cc1` [MBX-8093], in that order: greater than 22 µg/mL and greater than 20 µg/mL.
As for `O=S(=O)(c1ccoc1)N1CCC2(CC1)CC(CCOc1ccncc1)CCO2` (centres unmarked) [MBX-7875], the MIC was greater than 16 µg/mL and the “MIC (ug/mL) (+) Fluc” value stood at 8.00 µg/mL.
The like results for `O=S(=O)(c1cccnc1)N1CCC2(CC1)CC(CCOc1ccncc1)CCO2` (centres unmarked) [MBX-7874] were, in that order, greater than 16 µg/mL and greater than 16 µg/mL.
The like results for `O=C(c1ccsc1)N1CCC(c2ccc(COc3ccncc3)cc2)CC1` [MBX-8066] were, in that order, 1.2 µg/mL and 0.90 µg/mL.
The like results for `O=C(c1ccsc1)N1CCc2cc(COc3ccncc3)ccc2C1` [MBX-8308] were, in that order, 4.3 µg/mL and 1.90 µg/mL.
On to `O=C1c2ccsc2CCN1Cc1ccc(COc2ccncc2)cc1` [MBX-8243], for which the MIC is 8.76 µg/mL and the “MIC (ug/mL) (+) Fluc” value stood at 4.92 µg/mL.
Consider `COc1cc(OCc2ccc(CC3CCN(C(=O)c4ccsc4)CC3)cc2)ccn1` [MBX-8142], for which the MIC is greater than 21 µg/mL, the “potency / potentiation” value was “complete loss of activity” and the “MIC (ug/mL) (+) Fluc” value was greater than 21 µg/mL.
On to `CN1CCc2cc(CC3CCN(S(=O)(=O)c4ccc(F)cc4)CC3)ccc2C1` [MBX-8700], for which the MIC was 8.97 µg/mL and the “MIC (ug/mL) (+) Fluc” value amounted to 1.26 µg/mL.
For the compound `O=C(c1ccsc1)N1CCC(Cc2ccc(COc3ccncc3)cn2)CC1` [MBX-8619], the MIC was determined as 4.92 µg/mL and the “MIC (ug/mL) (+) Fluc” value came out at 1.23 µg/mL.
On to `O=S(=O)(c1ccc(F)cc1)N1CCC(Cc2ccc(CC3CCOCC3)cc2)CC1` [MBX-8347], for which the MIC was greater than 21 µg/mL and the “MIC (ug/mL) (+) Fluc” value is greater than 21 µg/mL.
For `O=S(=O)(c1ccsc1)N1CCc2cc(COc3ccncc3)ccc2C1` [MBX-8307], in that order: 4.8 µg/mL and 2.40 µg/mL.
As to `O=C(c1ccsc1)N1CC[C@@H](Cc2ccc(COc3ccncc3)cc2)C1` [MBX-8431], the MIC came to 3.78 µg/mL and the “MIC (ug/mL) (+) Fluc” value is 1.14 µg/mL.
The like results for `CN1CCN(Cc2ccc(CC3CCN(S(=O)(=O)c4ccc(F)cc4)CC3)cc2)CC1` [MBX-8436] were, in that order, 4.46 µg/mL and 0.45 µg/mL.
On to `O=S(=O)(c1ccc(C(F)(F)F)nc1)N1CCC2(CC1)CC(CCOc1ccncc1)CCO2` (centres unmarked) [MBX-7913], for which the MIC stood at 2.41 µg/mL, the “potency / potentiation” value was “the most potent” and the “MIC (ug/mL) (+) Fluc” value came out at 0.96 µg/mL.
As for `O=C(c1ccsc1)N1CCC(Cc2cccc(COc3ccncc3)c2)CC1` [MBX-8029], the MIC was determined as 27 µg/mL and the “MIC (ug/mL) (+) Fluc” value was 19.00 µg/mL.
The like results for `O=S(=O)(c1cccs1)N1CCC2(CC1)CC(CCO)CCO2` (centres unmarked) [MBX-8248] were, in that order, greater than 17 µg/mL and greater than 17 µg/mL.
Take `O=S(=O)(c1ccc(F)cc1)N1CCC(Cc2ccc(CN3CCN4CCC[C@H]4C3)cc2)CC1` [MBX-8668]: the MIC turned out to be 11.8 µg/mL and the “MIC (ug/mL) (+) Fluc” value came out at 1.47 µg/mL.
The like results for `O=S(=O)(c1cccc(F)c1)N1CCC(Cc2ccc(N3CCOCC3)cc2)CC1` [MBX-8222] were, in that order, greater than 21 µg/mL and greater than 21 µg/mL.
For `O=C(c1ccccc1)N1CCC(Cc2ccc(COc3ccncc3)cc2)CC1` [MBX-7704], in that order: greater than 15 µg/mL and greater than 15 µg/mL.
For `O=S(=O)(NC1CCN(Cc2ccc(CN3CCOCC3)cc2)CC1)c1ccc(F)cc1` [MBX-8284], in that order: greater than 22 µg/mL and greater than 22 µg/mL.
Regarding `O=C(c1ccsc1)N1CCC(Cc2ccc(COc3ccnc(Cl)c3)cc2)CC1` [MBX-8253], the MIC was greater than 21 µg/mL and the “MIC (ug/mL) (+) Fluc” value was greater than 21 µg/mL.
The like results for `Cc1cccc(S(=O)(=O)N2CCC3(CC2)CC(CCOc2ccncc2)CCO3)c1` (centres unmarked) [MBX-7870] were, in that order, greater than 17 µg/mL and 6.09 µg/mL.
Turning to `Cc1ccc(C(=O)N2CCC(Cc3ccc(COc4ccncc4)cc3)CC2)cc1` [MBX-7707], the MIC came out at 1.18 µg/mL, the “potency / potentiation” value is recorded as “comparable activity to MBX-7591” and the “MIC (ug/mL) (+) Fluc” value was 0.59 µg/mL.
The like results for `O=S(=O)(c1ccc(Cl)cc1)N1CCC(Cc2ccc(CN3CCOCC3)cc2)CC1` [MBX-8146] were, in that order, 0.28 µg/mL, “maintain activity in the morpholine series” and 0.14 µg/mL.
`CN(C)Cc1ccc(CC2CCN(S(=O)(=O)c3ccc(F)cc3)CC2)cc1` [MBX-8439]: the MIC was 9.76 µg/mL and the “MIC (ug/mL) (+) Fluc” value amounted to 0.78 µg/mL.
The like results for `O=S(=O)(c1ccc(Cl)cc1)N1CCC2(CC1)CC(CCOc1ccncc1)CCO2` (centres unmarked) [MBX-7877] were, in that order, 3.19 µg/mL and 0.80 µg/mL.
For `O=S(=O)(c1ccccc1F)N1CCC2(CC1)CC(CCOc1ccncc1)CCO2` (centres unmarked) [MBX-7869], in that order: greater than 17 µg/mL and 3.07 µg/mL.
In the case of `N#Cc1ccc(C(=O)N2CCC(Cc3ccc(COc4ccncc4)cc3)CC2)cc1` [MBX-8088], the MIC is 6.5 µg/mL, the “potency / potentiation” value is given as “antagonistic effect” and the “MIC (ug/mL) (+) Fluc” value was 14.50 µg/mL.
With `N=S(=O)(c1ccc(F)cc1)N1CCC(Cc2ccc(CN3CCOCC3)cc2)CC1` (centres unmarked) [MBX-8389], the MIC was greater than 43 µg/mL and the “MIC (ug/mL) (+) Fluc” value was greater than 43 µg/mL.
For `NCc1ccc(OCc2ccc(CC3CCN(C(=O)c4ccsc4)CC3)cc2)cc1` [MBX-8220], the MIC was greater than 21 µg/mL and the “MIC (ug/mL) (+) Fluc” value is greater than 21 µg/mL.
`O=C(c1ccsc1)N1CCC(Cc2ccc(COc3cc[n+]([O-])cc3)cc2)CC1` [MBX-8191]: the MIC is greater than 20 µg/mL, the “potency / potentiation” value is “complete loss of activity” and the “MIC (ug/mL) (+) Fluc” value is greater than 20 µg/mL.
On to `O=S(=O)(c1cccc(F)c1)N1CCC(Cc2ccc(CN3CC4CC(C3)O4)cc2)CC1` [MBX-8221], for which the MIC is greater than 17 µg/mL and the “MIC (ug/mL) (+) Fluc” value was greater than 22 µg/mL.
The like results for `O=C(c1cccc(F)c1)N1CCC(Cc2ccc(CN3CCOCC3)cc2)CC1` [MBX-8032] were, in that order, 3.1 µg/mL and 8.80 µg/mL.
With `O=C(c1ccsc1)N1CCC(Cc2ccc(CCc3ccncc3)cc2)CC1` [MBX-8026], the MIC was determined as 2.4 µg/mL, the “potency / potentiation” value is recorded as “maintained potency” and the “MIC (ug/mL) (+) Fluc” value is 0.80 µg/mL.
Regarding `O=S(=O)(c1ccc(F)cc1)N1CCC2(CC1)CC(CCOc1ccncc1)CCO2` (centres unmarked) [MBX-7871], the MIC was found to be 8.69 µg/mL and the “MIC (ug/mL) (+) Fluc” value is 1.09 µg/mL.
For `O=C(c1ccc2scnc2c1)N1CCC(Cc2ccc(COc3ccncc3)cc2)CC1` [MBX-8097], in that order: greater than 22 µg/mL and greater than 22 µg/mL.
Take `O=C(c1ccsc1)N1CCC(Cc2ccc(COc3ccncc3)nc2)CC1` [MBX-8323]: the MIC is 2.4 µg/mL and the “MIC (ug/mL) (+) Fluc” value worked out at 1.20 µg/mL.
The like results for `c1cc(OCc2ccc(CC3CCNCC3)cc2)ccn1` [MBX-8147] were, in that order, greater than 14 µg/mL and greater than 14 µg/mL.
The like results for `O=C(Nc1ccsc1)N1CCC(Cc2ccc(COc3ccncc3)cc2)CC1` [MBX-7805] were, in that order, greater than 16 µg/mL and greater than 16 µg/mL.
For `O=C(c1ccsc1)N1CCN(Cc2ccc(COc3ccncc3)cc2)CC1` [MBX-8030], in that order: 1.9 µg/mL and 0.50 µg/mL.
As for `CCc1ccc(C(=O)N2CCC(Cc3ccc(COc4ccncc4)cc3)CC2)cc1` [MBX-8087], the MIC stood at 13 µg/mL and the “MIC (ug/mL) (+) Fluc” value is greater than 18 µg/mL.
With `O=S(=O)(c1ccsc1)N1CC2(CN(CCOc3ccncc3)C2)C1` [MBX-8241], the MIC is greater than 18 µg/mL and the “MIC (ug/mL) (+) Fluc” value was greater than 18 µg/mL.
`O=C(c1ccsc1)N1CCN(Cc2ccc(-c3ccncc3)cc2)CC1` [MBX-8702]: the MIC stood at 1.14 µg/mL and the “MIC (ug/mL) (+) Fluc” value was 0.32 µg/mL.
Turning to `O=S(=O)(C1COC1)N1CCC2(CC1)CC(CCOc1ccncc1)CCO2` (centres unmarked) [MBX-7956], the MIC is greater than 79 µg/mL, the “potency / potentiation” value was “complete loss of activity” and the “MIC (ug/mL) (+) Fluc” value was greater than 79 µg/mL.
On to `O=S(=O)(c1cc(F)cc(F)c1)N1CCC(Cc2ccc(CN3CCOCC3)cc2)CC1` [MBX-8223], for which the MIC came out at 12.6 µg/mL and the “MIC (ug/mL) (+) Fluc” value was determined as 3.50 µg/mL.
